Test system: Adult L. serricata (blowflies)
Assay: Test A: adult blowflies on blood agar containing test compound, scored by number of dead flies
Format: in vivo
Conditions: 4 flies in test
Method: Adult L. serricata (blowflies): Adult flies are placed on beds of blood agar (in individual test wells; 4 flies per well) in which test compound, (3-bromo-N-[4-chloro-2-methyl-6-[(methylamino)carbonyl]phenyl]-1-(3-chloro-2-pyridinyl)-1H-pyrazole-5-carboxamide), was dissolved/suspended prior to hardening of agar. Flies can take up test compound by both ingestion and contact. Assays are scored by number of dead flies at 2 hours, 4 hours, and 24 hours.

Row | SMILES | Number dead flies at 2 hours (Rate 1 ppm in blood agar) | Number dead flies at 4 hours (Rate 1 ppm in blood agar) | Number dead flies at 24 hours (Rate 1 ppm in blood agar) | Number dead flies at 2 hours (Rate 10 ppm in blood agar) | Number dead flies at 4 hours (Rate 10 ppm in blood agar) | Number dead flies at 24 hours (Rate 10 ppm in blood agar) | Number dead flies at 2 hours (Rate 25 ppm in blood agar) | Number dead flies at 4 hours (Rate 25 ppm in blood agar) | Number dead flies at 24 hours (Rate 25 ppm in blood agar) | Number dead flies at 2 hours (Rate 50 ppm in blood agar) | Number dead flies at 4 hours (Rate 50 ppm in blood agar) | Number dead flies at 24 hours (Rate 50 ppm in blood agar) | Number dead flies at 2 hours (Rate 100 ppm in blood agar) | Number dead flies at 4 hours (Rate 100 ppm in blood agar) | Number dead flies at 24 hours (Rate 100 ppm in blood agar)
1 | CCOP(=S)(OCC)Oc1nc(Cl)c(Cl)cc1Cl [Chloropyriphos, O,O-diethyl-O-3,5,6-trichloro-2-pyridyl-phosphorothioate] | 0 | 1 | 4 | 1 | 4 | 4 | 3 | 4 | 4 | 4 | 4 | 4 | 4 | 4 | 4
2 | CNC(=O)c1cc(Cl)cc(C)c1NC(=O)c1cc(Br)nn1-c1ncccc1Cl [Test Compound, 3-bromo-N-[4-chloro-2-methyl-6-[(methylamino)carbonyl]phenyl]-1-(3-chloro-2-pyridinyl)-1H-pyrazole-5-carboxamide] | 0 | 0 | 0 | 0 | 0 | 1 | 0 | 0 | 2 | 0 | 0 | 2 | 0 | 0 | 3

From patent US20100197738A1, “FLY CONTROL METHOD” (priority 2007, published 2010)
